Format in all cases: functional
One assay deals with Staphylococcus aureus. As to the kind of experiment: Antibacterial activity against Staphylococcus aureus MTCC 96 after 24 to 48 hr by serial broth dilution method.
A further assay has as its system Aspergillus clavatus. As to the kind of experiment: Antifungal activity against Aspergillus clavatus MTCC 1323.
For another assay, the system named is Pseudomonas aeruginosa. As to the kind of experiment: Antibacterial activity against Pseudomonas aeruginosa MTCC 1688 after 24 to 48 hr by serial broth dilution method.
The subject of a further assay is Streptococcus pyogenes. Briefly: Antibacterial activity against Streptococcus pyogenes MTCC 442 after 24 to 48 hr by serial broth dilution method. Background: Broth dilution looks for growth in wells or tubes with falling amounts of substance.
The subject of another assay is Escherichia coli. Briefly: Antibacterial activity against Escherichia coli MTCC 443 after 24 to 48 hr by serial broth dilution method.
The next assay relates to Aspergillus niger. As to the kind of experiment: Antifungal activity against Aspergillus niger MTCC 282.
Another assay has as its system Candida albicans. Briefly: Antifungal activity against Candida albicans MTCC 227.

Values after ≈ are worked out from the molar mass of the structure shown.

As a reminder, the MIC is the smallest concentration in the dilution series that meets the test's criterion for growth inhibition. Turning to `Cc1ccc2nc(-c3ccccc3N3C(=O)CSC3c3ccc(O)cc3)[nH]c2c1` (stereo unspecified), the MIC turned out to be 500 µg/mL (≈ 1250 µM) against Staphylococcus aureus; 1000 µg/mL (≈ 2490 µM) against Aspergillus clavatus; 250 µg/mL (≈ 623 µM) against Pseudomonas aeruginosa; 500 µg/mL (≈ 1250 µM) with Streptococcus pyogenes (read-out: MIC); 125 µg/mL (≈ 311 µM) with Escherichia coli; 1000 µg/mL (≈ 2490 µM) in the assay on Aspergillus niger. 1000 µg/mL (≈ 2490 µM) was the least that counted as inhibitory in the assay with Candida albicans (MIC).

Consider `Cc1ccc2nc(-c3ccccc3N3C(=O)CSC3c3ccc([N+](=O)[O-])cc3[N+](=O)[O-])[nH]c2c1` (stereo unspecified), for which the MIC against Staphylococcus aureus came out at 62.5 µg/mL (≈ 131 µM); against Aspergillus clavatus it was 1000 µg/mL (≈ 2100 µM); with Pseudomonas aeruginosa, 250 µg/mL (≈ 526 µM); with Streptococcus pyogenes (read-out: MIC), 1000 µg/mL (≈ 2100 µM); in the assay on Escherichia coli, 62.5 µg/mL (≈ 131 µM); in the assay with Aspergillus niger, 1000 µg/mL (≈ 2100 µM). Besides, the MIC with Candida albicans amounted to 1000 µg/mL (≈ 2100 µM).

For `Cc1ccc2nc(-c3ccccc3N3C(=O)CSC3c3ccccc3Cl)[nH]c2c1` (stereo unspecified), the MIC with Staphylococcus aureus is 500 µg/mL (≈ 1190 µM); with Aspergillus clavatus, 1000 µg/mL (≈ 2380 µM); in the assay on Pseudomonas aeruginosa, 1000 µg/mL (≈ 2380 µM); with Streptococcus pyogenes (read-out: MIC), 1000 µg/mL (≈ 2380 µM); in the assay on Escherichia coli, 1000 µg/mL (≈ 2380 µM); against Aspergillus niger, 1000 µg/mL (≈ 2380 µM). Moreover, the MIC in the assay with Candida albicans turned out to be 1000 µg/mL (≈ 2380 µM).

`CC1(C)S[C@@H]2[C@H](NC(=O)[C@H](N)c3ccccc3)C(=O)N2[C@H]1C(=O)O` [AMPICILLIN]: the MIC with Staphylococcus aureus stood at 250 µg/mL (≈ 715 µM); against Pseudomonas aeruginosa, 100 µg/mL (≈ 286 µM); in the assay with Streptococcus pyogenes (read-out: MIC), 100 µg/mL (≈ 286 µM); in the assay with Escherichia coli it was 100 µg/mL (≈ 286 µM).

As for `COC1=CC(=O)C[C@@H](C)[C@]12Oc1c(Cl)c(OC)cc(OC)c1C2=O` [GRISEOFULVIN], the MIC against Aspergillus clavatus amounted to 100 µg/mL (≈ 283 µM); with Aspergillus niger it was 100 µg/mL (≈ 283 µM); in the assay with Candida albicans, 500 µg/mL (≈ 1420 µM).

For `Cc1ccc2nc(-c3ccccc3N3C(=O)CSC3c3cccc([N+](=O)[O-])c3)[nH]c2c1` (stereo unspecified), the MIC amounted to 100 µg/mL (≈ 232 µM) in the assay with Staphylococcus aureus; 1000 µg/mL (≈ 2320 µM) in the assay on Aspergillus clavatus; 250 µg/mL (≈ 581 µM) in the assay on Pseudomonas aeruginosa; 62.5 µg/mL (≈ 145 µM) in the assay on Streptococcus pyogenes (read-out: MIC); 25 µg/mL (≈ 58.1 µM) in the assay with Escherichia coli; 100 µg/mL (≈ 232 µM) in the assay with Aspergillus niger. In the assay with Candida albicans, it took 100 µg/mL (≈ 232 µM) to inhibit growth (MIC).

In the case of `COc1cc(C2SCC(=O)N2c2ccccc2-c2nc3ccc(C)cc3[nH]2)cc(OC)c1OC` (stereo unspecified), the MIC in the assay with Staphylococcus aureus stood at 500 µg/mL (≈ 1050 µM); in the assay with Aspergillus clavatus it was 1000 µg/mL (≈ 2100 µM); in the assay on Pseudomonas aeruginosa, 250 µg/mL (≈ 526 µM); with Streptococcus pyogenes (read-out: MIC), 250 µg/mL (≈ 526 µM); in the assay with Escherichia coli it was 500 µg/mL (≈ 1050 µM); in the assay on Aspergillus niger, 1000 µg/mL (≈ 2100 µM). This compound showed an MIC in the assay with Candida albicans of 500 µg/mL (≈ 1050 µM).

Consider `Cc1ccc2nc(-c3ccccc3N3C(=O)CSC3c3ccc(F)cc3)[nH]c2c1` (stereo unspecified), for which the MIC against Staphylococcus aureus is 250 µg/mL (≈ 620 µM); in the assay on Aspergillus clavatus, 1000 µg/mL (≈ 2480 µM); against Pseudomonas aeruginosa, 250 µg/mL (≈ 620 µM); in the assay with Streptococcus pyogenes (read-out: MIC), 250 µg/mL (≈ 620 µM); against Escherichia coli, 250 µg/mL (≈ 620 µM); in the assay on Aspergillus niger, 500 µg/mL (≈ 1240 µM). In addition, 500 µg/mL (≈ 1240 µM) was the least that counted as inhibitory with Candida albicans (MIC).

As for `Cc1ccc2nc(-c3ccccc3N3C(=O)CSC3c3ccc(Cl)cc3)[nH]c2c1` (stereo unspecified), the MIC with Staphylococcus aureus came out at 100 µg/mL (≈ 238 µM); with Aspergillus clavatus, 1000 µg/mL (≈ 2380 µM); with Pseudomonas aeruginosa, 250 µg/mL (≈ 595 µM); with Streptococcus pyogenes (read-out: MIC), 62.5 µg/mL (≈ 149 µM); in the assay on Escherichia coli it was 125 µg/mL (≈ 298 µM); against Aspergillus niger it was 500 µg/mL (≈ 1190 µM). This compound registered an MIC with Candida albicans of 500 µg/mL (≈ 1190 µM).

For the compound `Cc1ccc2nc(-c3ccccc3N3C(=O)CSC3c3ccccc3[N+](=O)[O-])[nH]c2c1` (stereo unspecified), the MIC came to 1000 µg/mL (≈ 2320 µM) against Staphylococcus aureus; 1000 µg/mL (≈ 2320 µM) against Aspergillus clavatus; 250 µg/mL (≈ 581 µM) against Pseudomonas aeruginosa; 250 µg/mL (≈ 581 µM) in the assay on Streptococcus pyogenes (read-out: MIC); 500 µg/mL (≈ 1160 µM) in the assay on Escherichia coli; 1000 µg/mL (≈ 2320 µM) with Aspergillus niger. In addition, the MIC in the assay with Candida albicans amounted to 1000 µg/mL (≈ 2320 µM).

Take `Cc1ccc2nc(-c3ccccc3N3C(=O)CSC3c3ccc(Cl)cc3Cl)[nH]c2c1` (stereo unspecified): the MIC against Staphylococcus aureus came out at 1000 µg/mL (≈ 2200 µM); against Aspergillus clavatus, 500 µg/mL (≈ 1100 µM); against Pseudomonas aeruginosa, 100 µg/mL (≈ 220 µM); against Streptococcus pyogenes it was 500 µg/mL (≈ 1100 µM); against Escherichia coli it was 62.5 µg/mL (≈ 138 µM); with Aspergillus niger, 500 µg/mL (≈ 1100 µM). The compound further displayed an MIC in the assay on Candida albicans of 250 µg/mL (≈ 550 µM).

Turning to `COc1ccc(C2SCC(=O)N2c2ccccc2-c2nc3ccc(C)cc3[nH]2)cc1OC` (stereo unspecified), the minimal inhibitory concentration (MIC) came out at 100 µg/mL (≈ 224 µM) in the assay with Staphylococcus aureus; 1000 µg/mL (≈ 2240 µM) in the assay with Aspergillus clavatus; 250 µg/mL (≈ 561 µM) with Pseudomonas aeruginosa; 1000 µg/mL (≈ 2240 µM) in the assay with Streptococcus pyogenes (read-out: MIC); 100 µg/mL (≈ 224 µM) against Escherichia coli; 1000 µg/mL (≈ 2240 µM) against Aspergillus niger. Also, in the assay with Candida albicans, the lowest concentration to inhibit growth (MIC) was 500 µg/mL (≈ 1120 µM).

Turning to `Cc1ccc2nc(-c3ccccc3N3C(=O)CSC3c3cccc(O)c3)[nH]c2c1` (stereo unspecified), the MIC against Staphylococcus aureus was 250 µg/mL (≈ 623 µM); in the assay on Aspergillus clavatus, 100 µg/mL (≈ 249 µM); in the assay on Pseudomonas aeruginosa, 250 µg/mL (≈ 623 µM); in the assay with Streptococcus pyogenes (read-out: MIC), 125 µg/mL (≈ 311 µM); against Escherichia coli, 500 µg/mL (≈ 1250 µM); against Aspergillus niger, 1000 µg/mL (≈ 2490 µM). Moreover, in the assay with Candida albicans, the MIC turned out to be 500 µg/mL (≈ 1250 µM).

As to `Cc1ccc2nc(-c3ccccc3N3C(=O)CSC3c3ccc([N+](=O)[O-])cc3)[nH]c2c1` (stereo unspecified), the MIC with Staphylococcus aureus stood at 250 µg/mL (≈ 581 µM); in the assay with Aspergillus clavatus, 1000 µg/mL (≈ 2320 µM); in the assay on Pseudomonas aeruginosa it was 250 µg/mL (≈ 581 µM); with Streptococcus pyogenes (read-out: MIC) it was 250 µg/mL (≈ 581 µM); against Escherichia coli, 500 µg/mL (≈ 1160 µM); with Aspergillus niger it was 1000 µg/mL (≈ 2320 µM). This compound came in with an MIC with Candida albicans of 500 µg/mL (≈ 1160 µM).

The values above are taken from ChEMBL document CHEMBL3046893, “Antimicrobial screening of novel synthesized benzimidazole nucleus containing 4-oxo-thiazolidine derivatives” (2012).
